The values that follow are results of earlier work, collected in patent US20080253966A1, “Diagnostic, Prognostic, and Therapeutic Factor Smac/Diablo in Human Cancer” (The Regents of The University of California, priority 2004, published 2008).

For the data set, the system named is cell lines treated with paclitaxel, etoposide, camptothecin, and doxorubicine.

For “first four amino acids of Smac/DIABLO: the first four amino acids of Smac/DIABLO (Arnt et al., J. Biol. Chem. 2002) (AVPI; UniProt Q9NR28 56-59, looked up, fragment)”, the effect on apoptosis result is recorded as “increased apoptosis”.
